Among the data in patent publication US9796741B2 (Achillion Pharmaceuticals, Inc., priority 2014, dated 2017) are IC50 values, retold here.

In general, IC50 refers to the concentration at which inhibition is half-maximal. Lower therefore signals higher potency.

The target in the first assay is Human factor D (Homo sapiens (Human), UniProt P00746). In words: Human Factor D Assay.
Human factor D, sequence (P00746 26-253): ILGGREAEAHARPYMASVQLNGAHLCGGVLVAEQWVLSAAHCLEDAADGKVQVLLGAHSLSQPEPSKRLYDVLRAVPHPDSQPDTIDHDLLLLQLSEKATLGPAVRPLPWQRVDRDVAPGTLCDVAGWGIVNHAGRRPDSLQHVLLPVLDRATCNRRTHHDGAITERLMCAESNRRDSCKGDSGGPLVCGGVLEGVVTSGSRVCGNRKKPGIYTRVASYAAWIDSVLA
Conditions: not given
It is filed as biochemical. In short, it runs like this: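 Serum-purified factor D (80 nM final) preincubated 5 min at room temperature with compound in 50 mM Tris, 1M NaCl, pH 7.5. Z-L-Lys-SBzl and DTNB added at 100 μM each; OD405 followed kinetically over 30 min. IC50 by non-linear regression of % inhibition.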
In turn, `CC(=O)c1cn(CC(=O)N2C[C@H](F)C[C@H]2C(=O)NC2CCCN(c3cc(C)ccc3F)C2=O)c2ccc(-c3ccnnc3)cc12` (stereo partly drawn) [Compound 125, (2S,4R)-1-(2-(3-acetyl-5-(pyridazin-4-yl)-1H-indol-1-yl)acetyl)-4-fluoro-N-(1-(2-fluoro-5-methylphenyl)-2-oxopiperidin-3-yl)pyrrolidine-2-carboxamide] registered an IC50 of 1 to 10 µM.
On the same count and under the same terms, under `NC(=O)c1nn(CC(=O)N2C[C@H](F)C[C@H]2C(=O)NCc2ccccn2)c2ccc(-c3ccnnc3)cc12` [Compound 139, 1-(2-((2S,4R)-4-fluoro-2-(pyridin-2-ylmethylcarbamoyl)pyrrolidin-1-yl)-2-oxoethyl)-5-(pyridazin-4-yl)-1H-indazole-3-carboxamide] stands 1 to 10 µM; under `CC(=O)c1cn(CC(=O)N2C[C@H](F)C[C@H]2C(=O)NC2CCCN(c3cnn(C)c3)C2)c2ccc(-c3ccnnc3)cc12` (stereo partly drawn) [Compound 140, (2S,4R)-1-(2-(3-acetyl-5-(pyridazin-4-yl)-1H-indol-1-yl)acetyl)-4-fluoro-N-(1-(1-methyl-1H-pyrazol-4-yl)piperidin-3-yl)pyrrolidine-2-carboxamide], 1 to 10 µM.

The assay is the same for the next values; noted with them: human factor D 80 nM, substrate Z-L-Lys-SBzl, DTNB.
`CC(=O)c1cn(CC(=O)N2C[C@H](F)C[C@H]2C(=O)Nc2cccc(-c3ccccc3Cl)c2F)c2ccc(-c3cnnc(C)c3)cc12` [Compound 121, (2S,4R)-1-(2-(3-acetyl-5-(6-methylpyridazin-4-yl)-1H-indol-1-yl)acetyl)-N-(2′-chloro-2-fluorobiphenyl-3-yl)-4-fluoropyrrolidine-2-carboxamide] returned an IC50 below 1 µM.
Still for that read-out and setting: for `COc1cc(C)cc2c1OCCC2NC(=O)[C@@H]1C[C@@H](F)CN1C(=O)Cn1nc(C(N)=O)c2cc(-c3ccnnc3)ccc21` (stereo partly drawn) [Compound 122, 1-(2-((2S,4R)-4-fluoro-2-(8-methoxy-6-methylchroman-4-ylcarbamoyl)pyrrolidin-1-yl)-2-oxoethyl)-5-(pyridazin-4-yl)-1H-indazole-3-carboxamide] the value was above 10 µM.
Still for that read-out and setting: for `COc1cc(C)cc2c1OCCC2NC(=O)[C@@H]1C[C@@H](F)CN1C(=O)Cn1cc(C(C)=O)c2cc(-c3ccnnc3)ccc21` (stereo partly drawn) [Compound 123, (2S,4R)-1-(2-(3-acetyl-5-(pyridazin-4-yl)-1H-indol-1-yl)acetyl)-4-fluoro-N-(8-methoxy-6-methylchroman-4-yl)pyrrolidine-2-carboxamide] the value was above 10 µM; for `CC(=O)c1cn(CC(=O)N2C[C@H](F)C[C@H]2C(=O)Nc2cccc(Cl)c2C(F)(F)F)c2ccc(-c3ccnnc3)cc12` [Compound 126, (2S,4R)-1-(2-(3-acetyl-5-(pyridazin-4-yl)-1H-indol-1-yl)acetyl)-N-(3-chloro-2-(trifluoromethyl)phenyl)-4-fluoropyrrolidine-2-carboxamide], above 10 µM.
On the same count and under the same terms, for `CC(=O)c1cn(CC(=O)N2C[C@H](F)C[C@H]2C(=O)Nc2cncc(Br)n2)c2ccc(-c3ccnnc3)cc12` [Compound 127, (2S,4R)-1-(2-(3-acetyl-5-(pyridazin-4-yl)-1H-indol-1-yl)acetyl)-N-(6-bromopyrazin-2-yl)-4-fluoropyrrolidine-2-carboxamide] the value was below 1 µM; for `NC(=O)c1nn(CC(=O)N2C[C@H](F)C[C@H]2C(=O)Nc2cncc(Br)n2)c2ccc(-c3ccnnc3)cc12` [Compound 128, 1-(2-((2S,4R)-2-(6-bromopyrazin-2-ylcarbamoyl)-4-fluoropyrrolidin-1-yl)-2-oxoethyl)-5-(pyridazin-4-yl)-1H-indazole-3-carboxamide], below 1 µM; for `NC(=O)c1nn(CC(=O)N2C[C@H](F)C[C@H]2C(=O)Nc2ccc3ccccc3c2)c2ccc(-c3ccnnc3)cc12` [Compound 131, 1-(2-((2S,4R)-4-fluoro-2-(naphthalen-2-ylcarbamoyl)pyrrolidin-1-yl)-2-oxoethyl)-5-(pyridazin-4-yl)-1H-indazole-3-carboxamide], above 10 µM.
`CC(=O)c1cn(CC(=O)N2[C@@H]3C[C@@H]3C[C@H]2C(=O)Nc2cccc(-c3ccccc3Cl)c2F)c2ccc(-c3cnc(C)nc3)cc12` [Compound 133, (1R,3S,5R)-2-(2-(3-acetyl-5-(2-methylpyrimidin-5-yl)-1H-indol-1-yl)acetyl)-N-(2′-chloro-2-fluorobiphenyl-3-yl)-2-azabicyclo[3.1.0] hexane-3-carboxamide] yielded an IC50 below 1 µM.
Turning to `CC(=O)c1cn(CC(=O)N2[C@@H]3C[C@@H]3C[C@H]2C(=O)NCc2cccc(Cl)c2F)c2ccc(-c3cnc(C)nc3)cc12` [Compound 134, (1R,3S,5R)-2-(2-(3-acetyl-5-(2-methylpyrimidin-5-yl)-1H-indol-1-yl)acetyl)-N-(3-chloro-2-fluorobenzyl)-2-azabicyclo[3.1.0] hexane-3-carboxamide], the IC50 was below 1 µM.
Still for that read-out and setting: for `CC(=O)c1cn(CC(=O)N2C[C@H](F)C[C@H]2C(=O)NCc2cccc(Cl)c2F)c2ccc(-c3cnc(C)nc3)cc12` [Compound 135, (2S,4R)-1-(2-(3-acetyl-5-(2-methylpyrimidin-5-yl)-1H-indol-1-yl)acetyl)-N-(3-chloro-2-fluorobenzyl)-4-fluoropyrrolidine-2-carboxamide] the value was below 1 µM.
The same measure, in the same setting: for `COc1ncc(-c2ccc3c(c2)c(C(C)=O)cn3CC(=O)N2C[C@H](F)C[C@H]2C(=O)NCc2cccc(Cl)c2F)cn1` [Compound 136, (2S,4R)-1-(2-(3-acetyl-5-(2-methoxypyrimidin-5-yl)-1H-indol-1-yl)acetyl)-N-(3-chloro-2-fluorobenzyl)-4-fluoropyrrolidine-2-carboxamide] the value was below 1 µM; for `CC(=O)c1cn(CC(=O)N2C[C@H](F)C[C@H]2C(=O)Nc2cccc(Cl)n2)c2ccc(-c3cnc(C)nc3)cc12` [Compound 137, (2S,4R)-1-(2-(3-acetyl-5-(2-methylpyrimidin-5-yl)-1H-indol-1-yl)acetyl)-N-(6-chloropyridin-2-yl)-4-fluoropyrrolidine-2-carboxamide], below 1 µM; for `CC(=O)Nc1ncc(-c2ccc3c(c2)c(C(C)=O)cn3CC(=O)N2C[C@H](F)C[C@H]2C(=O)Nc2cccc(-c3ccccc3Cl)c2F)cn1` [Compound 138, (2S,4R)-1-(2-(5-(2-acetamidopyrimidin-5-yl)-3-acetyl-1H-indol-1-yl)acetyl)-N-(2′-chloro-2-fluorobiphenyl-3-yl)-4-fluoropyrrolidine-2-carboxamide], below 1 µM.
`Cn1cc(N2CCCC(NC(=O)[C@@H]3C[C@@H](F)CN3C(=O)Cn3nc(C(N)=O)c4cc(-c5ccnnc5)ccc43)C2)cn1` (stereo partly drawn) [Compound 141, 1-(2-((2S,4R)-4-fluoro-2-(1-(1-methyl-1H-pyrazol-4-yl)piperidin-3-ylcarbamoyl)pyrrolidin-1-yl)-2-oxoethyl)-5-(pyridazin-4-yl)-1H-indazole-3-carboxamide]: the IC50 is above 10 µM.
Same read-out and setting: for `CC(=O)c1cn(CC(=O)N2C[C@H](F)C[C@H]2C(=O)N[C@@H]2CCC[C@H]2O)c2ccc(-c3ccnnc3)cc12` [Compound 143, (2S,4R)-1-(2-(3-acetyl-5-(pyridazin-4-yl)-1H-indol-1-yl)acetyl)-4-fluoro-N-((1R,2R)-2-hydroxycyclopentyl) pyrrolidine-2-carboxamide] the value was above 10 µM; for `CC(=O)c1cn(CC(=O)N2C[C@H](F)C[C@H]2C(=O)Nc2cccc(O)n2)c2ccc(-c3ccnnc3)cc12` [Compound 144, (2S,4R)-1-(2-(3-acetyl-5-(pyridazin-4-yl)-1H-indol-1-yl)acetyl)-4-fluoro-N-(6-hydroxypyridin-2-yl)pyrrolidine-2-carboxamide], above 10 µM.
